From patent US20220211795A1 (Chenland Nutritionals Inc., priority 2021, published 2022) come the findings set out here.

A short description of one series: Particle size detection. In kind it is physicochemical. The text has this:
1.2 Particle Size Detection

A short description of series [1]: Potential detection (zeta potential). In kind it is physicochemical.
A further series relates to glioma GL261 cells. Nature of the series: Cytotoxicity experiment (CCK8). In kind it is cell-based. To be noted: 1.172-150 μg/mL, 4 h drug then 20 h culture. The protocol: Gl261 cells in logarithmic growth phase are uniformly inoculated into sterile 96-well plates with 2×10^3 cells per well, and no cells are seeded around the plates, then 100 μL […] is added into each well and cultured under the condition of 37° C. and 5% CO2 for 24 h; remove the culture medium and add 100 μL of drug-containing medium (concentration gradient set at […], 75.000 μg/mL, 37.500 μg/mL, 18.750 μg/mL, 9.375 μg/mL, 4.688 μg/mL, 2.344 μg/mL, and 1.172 μg/mL), the drug-containing medium is removed after culture for 4 h, and 100 μL of medium is added to each well for further culture for 20 h. The culture medium is removed, and culture medium containing 10% CCK8 is added. After incubation for 1 h, the absorbance is measured with a microplate reader, and the cell viability is determined by the following formula […].

SMILES strings stand for the structures.

With `COc1cc(/C=C/C(=O)CC(=O)/C=C/c2ccc(O)c(OC)c2)ccc1O` [Free Curcumin, Curcumin], the PDI in “Particle size detection” was 0.545. In the series “Particle size detection” (0.0309 g curcumin+10 ml water suspension), this compound displayed a Hydrodynamic diameter of 4.053 μm. In series [1], this compound registered an Average zeta potential of −36.5 mv. In the series with glioma GL261 cells, the “toxicity to GL261 cells” value is listed as “no obvious toxicity”.
